Experimental data: BigSolDB 2.1

O=c1cc(CO)occ1O
Conditions	solubility (mole fraction)
in 1,4-dioxane, 288.15 K	0.00698
in 1,4-dioxane, 293.15 K	0.0086
in 1,4-dioxane, 298.15 K	0.0103
in 1,4-dioxane, 303.15 K	0.0121
in 1,4-dioxane, 308.15 K	0.0153
in 1,4-dioxane, 313.15 K	0.018
in 1,4-dioxane, 318.15 K	0.0209
in 2-ethoxyethanol, 278.15 K	0.0134
in 2-ethoxyethanol, 283.15 K	0.015
in 2-ethoxyethanol, 288.15 K	0.0177
in 2-ethoxyethanol, 293.15 K	0.0204
in 2-ethoxyethanol, 298.15 K	0.0233
in 2-ethoxyethanol, 303.15 K	0.0261
in 2-ethoxyethanol, 308.15 K	0.03
in 2-ethoxyethanol, 313.15 K	0.034
in 2-ethoxyethanol, 318.15 K	0.0381
in 2-ethoxyethanol, 323.15 K	0.0435
in 2-methoxyethanol, 278.15 K	0.0181
in 2-methoxyethanol, 283.15 K	0.0214
in 2-methoxyethanol, 288.15 K	0.0252
in 2-methoxyethanol, 293.15 K	0.0287
in 2-methoxyethanol, 298.15 K	0.0331
in 2-methoxyethanol, 303.15 K	0.0377
in 2-methoxyethanol, 308.15 K	0.0431
in 2-methoxyethanol, 313.15 K	0.0491
in 2-methoxyethanol, 318.15 K	0.0559
in 2-methoxyethanol, 323.15 K	0.0625
in DMAc, 278.15 K	0.148
in DMAc, 283.15 K	0.157
in DMAc, 288.15 K	0.165
in DMAc, 293.15 K	0.174
in DMAc, 298.15 K	0.184
in DMAc, 303.15 K	0.194
in DMAc, 308.15 K	0.205
in DMAc, 313.15 K	0.216
in DMAc, 318.15 K	0.228
in DMAc, 323.15 K	0.24
in DMF, 278.15 K	0.0977
in DMF, 283.15 K	0.106
in DMF, 288.15 K	0.114
in DMF, 293.15 K	0.123
in DMF, 298.15 K	0.135
in DMF, 303.15 K	0.147
in DMF, 308.15 K	0.157
in DMF, 313.15 K	0.168
in DMF, 318.15 K	0.18
in DMF, 323.15 K	0.193
in DMSO, 293.15 K	0.238
in DMSO, 298.15 K	0.249
in DMSO, 303.15 K	0.259
in DMSO, 308.15 K	0.268
in DMSO, 313.15 K	0.28
in DMSO, 318.15 K	0.292
in DMSO, 323.15 K	0.303
in DMSO, 328.15 K	0.316
in DMSO, 333.15 K	0.331
in NMP, 278.15 K	0.17
in NMP, 283.15 K	0.179
in NMP, 288.15 K	0.185
in NMP, 293.15 K	0.193
in NMP, 298.15 K	0.201
in NMP, 303.15 K	0.208
in NMP, 308.15 K	0.216
in NMP, 313.15 K	0.223
in NMP, 318.15 K	0.232
in NMP, 323.15 K	0.241
in acetic acid, 293.15 K	0.0139
in acetic acid, 298.15 K	0.0169
in acetic acid, 303.15 K	0.0204
in acetic acid, 308.15 K	0.0246
in acetic acid, 313.15 K	0.0293
in acetic acid, 318.15 K	0.0353
in acetic acid, 323.15 K	0.0425
in acetic acid, 328.15 K	0.0511
in acetic acid, 333.15 K	0.0613
in acetone, 278.15 K	0.00224
in acetone, 283.15 K	0.00276
in acetone, 288.15 K	0.00324
in acetone, 293.15 K	0.00383
in acetone, 298.15 K	0.00455
in acetone, 303.15 K	0.00556
in acetone, 308.15 K	0.00686
in acetone, 313.15 K	0.008
in acetone, 318.15 K	0.00932
in acetone, 323.15 K	0.0106
in ethanol, 278.15 K	0.0031
in ethanol, 283.15 K	0.00374
in ethanol, 288.15 K	0.00459
in ethanol, 293.15 K	0.00595
in ethanol, 298.15 K	0.00739
in ethanol, 303.15 K	0.00893
in ethanol, 308.15 K	0.0108
in ethanol, 313.15 K	0.013
in ethanol, 318.15 K	0.0158
in ethanol, 323.15 K	0.0191
in ethyl acetate, 278.15 K	0.000804
in ethyl acetate, 283.15 K	0.00105
in ethyl acetate, 288.15 K	0.00137
in ethyl acetate, 293.15 K	0.00169
in ethyl acetate, 298.15 K	0.00201
in ethyl acetate, 303.15 K	0.00242
in ethyl acetate, 308.15 K	0.00296
in ethyl acetate, 313.15 K	0.00338
in ethyl acetate, 318.15 K	0.00411
in ethyl acetate, 323.15 K	0.00497
in methanol, 278.15 K	0.00492
in methanol, 283.15 K	0.00606
in methanol, 288.15 K	0.00737
in methanol, 293.15 K	0.00891
in methanol, 298.15 K	0.011
in methanol, 303.15 K	0.0132
in methanol, 308.15 K	0.0156
in methanol, 313.15 K	0.0189
in methanol, 318.15 K	0.0223
in methanol, 323.15 K	0.0267
in n-propanol, 278.15 K	0.00225
in n-propanol, 283.15 K	0.00281
in n-propanol, 288.15 K	0.00339
in n-propanol, 293.15 K	0.00423
in n-propanol, 298.15 K	0.00524
in n-propanol, 303.15 K	0.00646
in n-propanol, 308.15 K	0.00782
in n-propanol, 313.15 K	0.00964
in n-propanol, 318.15 K	0.0116
in n-propanol, 323.15 K	0.0139
in water, 278.15 K	0.00216
in water, 283.15 K	0.00276
in water, 288.15 K	0.00353
in water, 293.15 K	0.0043
in water, 298.15 K	0.00553
in water, 303.15 K	0.00679
in water, 308.15 K	0.00873
in water, 313.15 K	0.0113
in water, 318.15 K	0.0143
in water, 323.15 K	0.0185
